Results on one compound are retold here after US9878984B2, “Anti-cancer compounds” (NORTHWESTERN UNIVERSITY, priority 2008, dated 2018).

For the assay, the system named is Chk2. Briefly: DNA damage response assay (pThr68-Chk2 / total Chk2 western blot). In kind it is cell-based, human. As to conditions: HeLa cells, [GI99%], 20 hr, normalized to mitoxantrone. The protocol: DNA Damage Response Assay: 250,000 HeLa cells were plated in 35 mm culture dishes and allowed to attach for 8 hr and were then treated with the [GI99%] of each compound for 20 hr (total media volume was […] with 1% DMSO). After treatment cells were lysed in 150 μL detergent buffer containing 1:100 v/v protease inhibitor cocktail (Sigma—St. Louis, Mo.). Lysates were run on denaturing 12% acrylamide gels and transferred to nitrocellulose membranes. The membranes were blocked in blotto, incubated in anti-pThr68-Chk2 antibody (Cell Signaling—Danvers, Mass.) at 1:500 v/v dilution in blotto overnight 4° C., washed, incubated in HRP conjugated anti-rabbit secondary antibody (Jackson) at 1:5,000 v/v dilution in blotto for 1 hr, and then developed. The membranes were then stripped with a reducing buffer, blocked in blotto, incubated in anti-Chk2 antibody (Biolegend—San Diego, Calif.) at 1:500 v/v dilution in blotto overnight at 4° C., washed, incubated in HRP conjugated anti-mouse secondary antibody (Jackson) at 1:5,000 v/v dilution in blotto for 1 hr, and then developed. Membranes were developed with PicoWest Developing Solution (Pierce) and exposed to film. The intensities of bands were quantified as described in the previous section. The data are expressed as the average ratio of pThr68-Chk2 to total Chk2 as normalized to the mitoxantrone control in each of three independent experiments.
Topoisomerase inhibition by most mechanisms should cause activation of DNA damage response pathways because of the production of single and double strand DNA breaks, as is the case with amonafide. […] Therefore, measuring the DNA damage response at a fixed cytotoxic dose ([GI99%]) will determine the extent that DNA damage contributes to the cytotoxicity of these compounds. […] Activation of Chk2 was determined by measuring the ratio of pThr68-Chk2 to total Chk2 in HeLa cells treated with the [GI99%].

For `CN(C)CCN1C(=O)c2cccc3cc(N)cc(c23)C1=O` [amonafide, reference compound], the “DNA damage response (ratio of pThr68-Chk2 to total Chk2)” value is “evoked the strongest DNA damage response”.
